Columns and labels:
[1] = test system: ENR+CD organoids (ISC to Paneth cell differentiation); test: Primary screen: basal (non-stimulated) lysozyme secretion LYZ.NS, 2.5-D 384-well ENR+CD organoid differentiation; format: cell-based, mouse
Description: (§1) High-throughput screening.

[2] = test system: ENR+CD organoids (ISC to Paneth cell differentiation); test: Primary screen: CCh-stimulated lysozyme secretion LYZ.S, 2.5-D 384-well ENR+CD organoid differentiation; format: cell-based, mouse; conditions: primary screen
Description: as §1

ENR+CD organoids = test: Primary screen: ATP (CellTiter-Glo 3D, CTG) cell number/viability, 2.5-D 384-well ENR+CD organoids; conditions: primary screen; for Z.CTG: standard z score;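 as to all read-outs here: compounds given at plating and again on day 3 over a 6-day differentiation from ENR+CV stem-cell-enriched precursors, ATP measured on day 6, plate median as control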
[3] = primary screen, dose 0.08 uM, standard z score
[4] = primary screen, dose 0.40 uM, standard z score
[5] = primary screen, dose 2.00 uM, standard z score
[6] = primary screen, dose 10.00 uM, standard z score
[7] = dose 0.08 uM, FC vs plate median
[8] = dose 0.40 uM, FC vs plate median
[9] = dose 2.00 uM, FC vs plate median
[10] = dose 10.00 uM, FC vs plate median
[11] = dose 0.08 uM, FC relative to plate median
[12] = dose 0.40 uM, FC relative to plate median
[13] = dose 2.00 uM, FC relative to plate median
[14] = dose 10.00 uM, FC relative to plate median

Structure (SMILES) | Dose.FC.LYZ.NS ([1]; primary screen, dose 0.08 uM) [log2 fold change] | Dose.FC.LYZ.NS ([1]; primary screen, dose 0.40 uM) [log2 fold change] | Dose.FC.LYZ.NS ([1]; primary screen, dose 2.00 uM) [log2 fold change] | Dose.FC.LYZ.NS ([1]; primary screen, dose 10.00 uM) [log2 fold change] | Dose.FC.LYZ.S ([2]; dose 0.08 uM) [log2 fold change] | Dose.FC.LYZ.S ([2]; dose 0.40 uM) [log2 fold change] | Dose.FC.LYZ.S ([2]; dose 2.00 uM) [log2 fold change] | Dose.FC.LYZ.S ([2]; dose 10.00 uM) [log2 fold change] | Dose.FC.CTG (ENR+CD organoids; dose 0.08 uM) [log2 fold change] | Dose.FC.CTG (ENR+CD organoids; dose 0.40 uM) [log2 fold change] | Dose.FC.CTG (ENR+CD organoids; dose 2.00 uM) [log2 fold change] | Dose.FC.CTG (ENR+CD organoids; dose 10.00 uM) [log2 fold change] | Z.LYZ.NS (standard z score) ([1]; primary screen, dose 0.08 uM) | Z.LYZ.NS (standard z score) ([1]; primary screen, dose 0.40 uM) | Z.LYZ.NS (standard z score) ([1]; primary screen, dose 2.00 uM) | Z.LYZ.NS (standard z score) ([1]; primary screen, dose 10.00 uM) | Z.LYZ.NS [1, 3] | Z.LYZ.NS [1, 4] | Z.LYZ.NS [1, 5] | Z.LYZ.NS [1, 6] | also measured
C[C@H]1COC2=C1C(=O)C(=O)c1c2ccc2c1CCCC2(C)C [Cryptotanshinone] | 0.143 | −0.120 | −0.182 | −0.288 | 0.156 | −0.105 | −0.288 | −0.432 | 0.199 | −0.027 | −0.184 | −0.541 | – | – | – | – | – | – | – | – | Z.LYZ.NS ([1]; primary screen, standard z score, dose 0.08 uM): 1.243; Z.LYZ.NS ([1]; primary screen, standard z score, dose 0.40 uM): −1.047; Z.LYZ.NS ([1]; primary screen, standard z score, dose 2.00 uM): −1.585; Z.LYZ.NS ([1]; primary screen, standard z score, dose 10.00 uM): −2.506
C[C@@H]1COCCN1c1cc(C2(S(C)(=O)=O)CC2)nc(-c2cccc3[nH]ccc23)n1 [AZ20] | 0.042 | −0.140 | −0.215 | −0.261 | −0.038 | −0.236 | −0.373 | −0.329 | −0.210 | −0.218 | −1.054 | −0.573 | 0.365 | −1.222 | −1.868 | −2.271 | – | – | – | – | Z.CTG (standard z score) (ENR+CD organoids; dose 0.08 uM): −0.500; Z.CTG (standard z score) (ENR+CD organoids; dose 0.40 uM): −0.521; Z.CTG (standard z score) (ENR+CD organoids; dose 2.00 uM): −2.519; Z.CTG (standard z score) (ENR+CD organoids; dose 10.00 uM): −1.368
COc1ccc(-c2cnc3c(-c4cccc5ncccc45)cnn3c2)cc1 [ML347] | – | – | – | – | – | – | – | – | – | – | – | – | – | – | – | – | 1.079 | 1.150 | 0.600 | −1.078 | Dose.FC.LYZ.NS ([1]; primary screen; dose 0.08 uM; FC vs plate median): 0.124 log2 fold change; Dose.FC.LYZ.NS ([1]; primary screen; dose 0.40 uM; FC vs plate median): 0.132 log2 fold change; Dose.FC.LYZ.NS ([1]; primary screen; dose 2.00 uM; FC vs plate median): 0.069 log2 fold change; Dose.FC.LYZ.NS ([1]; primary screen; dose 10.00 uM; FC vs plate median): −0.124 log2 fold change; Dose.FC.LYZ.S [2, 7]: 0.094 log2 fold change; Dose.FC.LYZ.S [2, 8]: 0.111 log2 fold change; Dose.FC.LYZ.S [2, 9]: 0.072 log2 fold change; Dose.FC.LYZ.S [2, 10]: −0.202 log2 fold change; Z.CTG (ENR+CD organoids; dose 0.08 uM): 0.439; Z.CTG (ENR+CD organoids; dose 0.40 uM): 0.500; Z.CTG (ENR+CD organoids; dose 2.00 uM): 0.328; Z.CTG (ENR+CD organoids; dose 10.00 uM): −0.404; Dose.FC.CTG (ENR+CD organoids; [7]): 0.184 log2 fold change; Dose.FC.CTG (ENR+CD organoids; [8]): 0.209 log2 fold change; Dose.FC.CTG (ENR+CD organoids; [9]): 0.137 log2 fold change; Dose.FC.CTG (ENR+CD organoids; [10]): −0.169 log2 fold change
O=C1NC(=O)/C(=C/c2cccc(C(F)(F)F)c2)S1 [SMI-4a] | – | – | – | – | – | – | – | – | – | – | – | – | – | – | – | – | 0.188 | −0.524 | 0.283 | −0.643 | Dose.FC.LYZ.NS ([1]; primary screen, dose 0.08 uM, FC relative to plate median): 0.022 log2 fold change; Dose.FC.LYZ.NS ([1]; primary screen, dose 0.40 uM, FC relative to plate median): −0.060 log2 fold change; Dose.FC.LYZ.NS ([1]; primary screen, dose 2.00 uM, FC relative to plate median): 0.032 log2 fold change; Dose.FC.LYZ.NS ([1]; primary screen, dose 10.00 uM, FC relative to plate median): −0.074 log2 fold change; Dose.FC.LYZ.S [2, 11]: 0.036 log2 fold change; Dose.FC.LYZ.S [2, 12]: −0.063 log2 fold change; Dose.FC.LYZ.S [2, 13]: −0.042 log2 fold change; Dose.FC.LYZ.S [2, 14]: −0.134 log2 fold change; Dose.FC.CTG (ENR+CD organoids; [11]): −0.153 log2 fold change; Z.CTG (ENR+CD organoids; dose 0.08 uM): −0.366; Dose.FC.CTG (ENR+CD organoids; [12]): −0.317 log2 fold change; Z.CTG (ENR+CD organoids; dose 0.40 uM): −0.758; Dose.FC.CTG (ENR+CD organoids; [13]): −0.332 log2 fold change; Z.CTG (ENR+CD organoids; dose 2.00 uM): −0.793; Dose.FC.CTG (ENR+CD organoids; [14]): −0.327 log2 fold change; Z.CTG (ENR+CD organoids; dose 10.00 uM): −0.781
CNCc1ccc(-c2cc(-c3nc(-c4ccc(S(=O)(=O)C(C)C)cc4)cnc3N)on2)cc1 [VE-822] | 0.058 | −0.040 | −0.220 | −0.210 | 0.104 | −0.064 | −0.302 | −0.321 | −0.147 | −0.287 | −0.717 | −1.763 | 0.505 | −0.351 | −1.913 | −1.825 | – | – | – | – | –

Reference: patent publication US20220323406A1, “METHODS AND COMPOSITIONS FOR DIFFERENTIATING STEM CELLS” (Massachusetts Institute of Technology, priority 2019, published 2022)
